For the assay, the target named is BACE (Homo sapiens, UniProt P56817). Description: Ki Determination for the Inhibition of BACE (FS-1 peptide fluorescence cleavage assay). In kind it is biochemical. The note with it: apparent Ki; 50 nM BACE, 10 μM FS-1 substrate, 0.1M sodium acetate pH 4.5. The procedure, abridged: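 Apparent Ki values derive from fitting fluorescence progress data (355 nm excitation, 495 nm emission) of FS-1 peptide cleavage to an integrated competitive tight-binding model. Reactions held 50 nM BACE, 10 μM substrate and inhibitor in 2% DMSO, pH 4.5 acetate buffer, with a 15 min enzyme-compound preincubation at room temperature.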
BACE, sequence (P56817 46-501): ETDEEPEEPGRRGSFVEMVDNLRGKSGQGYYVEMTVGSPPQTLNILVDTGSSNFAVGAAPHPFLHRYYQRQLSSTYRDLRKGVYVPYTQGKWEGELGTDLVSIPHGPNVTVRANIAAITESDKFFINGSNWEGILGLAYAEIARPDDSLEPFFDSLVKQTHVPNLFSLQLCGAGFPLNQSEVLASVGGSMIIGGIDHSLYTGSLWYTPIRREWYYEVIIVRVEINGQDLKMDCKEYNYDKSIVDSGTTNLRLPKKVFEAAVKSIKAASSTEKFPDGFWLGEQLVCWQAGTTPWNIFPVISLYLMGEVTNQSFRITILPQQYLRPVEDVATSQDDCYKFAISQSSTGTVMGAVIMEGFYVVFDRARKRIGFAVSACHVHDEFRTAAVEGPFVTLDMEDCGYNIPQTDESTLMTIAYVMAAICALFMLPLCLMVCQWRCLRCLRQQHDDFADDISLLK

Regarding `O=C(NCC1CNCCC1c1ccc(COc2ccccc2C(F)(F)F)cc1)Nc1ccc2ccccc2c1` (centres unmarked) [Compound 232, 1-Naphthalen-2-yl-3-{4-[4-(2-trifluoromethyl-phenoxymethyl)-phenyl]-piperidin-3-ylmethyl}-urea], the Ki was less than 3 µM.

Regarding `FC(F)(F)c1ccccc1OCc1cc(-c2cccc3ccccc23)c(COc2ccccc2C(F)(F)F)cc1C1=CCNCC1` [Compound 301, 4-[4-Naphthalen-1-yl-2,5-bis-(2-trifluoromethyl-phenoxymethyl)-phenyl]-1,2,3,6-tetrahydro-pyridine], the Ki was less than 3 µM.

With `C1=C(c2ccc(-c3ccccc3)cc2)C(COc2ccc3ccccc3c2)CNC1` (centres unmarked) [Compound 302, 4-Biphenyl-4-yl-3-(naphthalen-2-yloxymethyl)-1,2,3,6-tetrahydro-pyridine], the Ki was less than 3 µM.

With `FC(F)(F)c1ccccc1OCc1ccc(COc2ccccc2C(F)(F)F)c(C2=CCNCC2)c1` [Compound 303, 4-[2,5-Bis-(2-trifluoromethyl-phenoxymethyl)-phenyl]-1,2,3,6-tetrahydro-pyridine], the Ki was less than 3 µM.

With `FC(F)(F)c1ccccc1OCc1cccc(COc2ccccc2C(F)(F)F)c1C1=CCNCC1` [Compound 304, 4-[2,6-Bis-(2-trifluoromethyl-phenoxymethyl)-phenyl]-1,2,3,6-tetrahydro-pyridine], the Ki was less than 3 µM.

On to `c1ccc(COc2ccc3c(c2)c2c(n3Cc3ccc4ccccc4c3)CNCC2)cc1` [Compound 305, 6-Benzyloxy-9-naphthalen-2-ylmethyl-2,3,4,9-tetrahydro-1H-b-carboline], for which the Ki lay within 3 to 30 µM.

In the case of `FC(F)(F)c1ccccc1OCc1cc(-c2ccccc2)c(COc2ccccc2C(F)(F)F)cc1C1=CCNCC1` [Compound 306, 4-[2,5-Bis-(2-trifluoromethyl-phenoxymethyl)-biphenyl-4-yl]-1,2,3,6-tetrahydro-pyridine], the Ki was less than 3 µM.

In the case of `C1=C(c2cc(COc3ccc4ccccc4c3)c(-c3ccccc3)cc2COc2ccc3ccccc3c2)CCNC1` [Compound 307, 4-[2,5-Bis-(naphthalen-2-yloxymethyl)-biphenyl-4-yl]-1,2,3,6-tetrahydro-pyridine], the Ki is less than 3 µM.

For `O=C(Nc1ccc2ccccc2c1)c1ccc(COc2ccccc2C(F)(F)F)cc1C1=CCNCC1` [Compound 308, N-Naphthalen-2-yl-2-{1,2,3,6-tetrahydro-pyridin-4-yl)-4-(2-trifluoromethyl-phenoxymethyl)-benzamide], the Ki fell in the range of 3 to 30 µM.

`COc1cc(NC(=O)c2ccc(COc3ccccc3C(F)(F)F)cc2C2=CCNCC2)cc2ccccc12` [Compound 309, N-(4-Methoxy-naphthalen-2-yl)-2-(1,2,3,6-tetrahydro-pyridin-4-yl)-4-(2-trifluoromethyl-phenoxyraethyl)-benzamide]: the Ki lay in the range of 3 to 30 µM.

With `Nc1cccc2c(NC(=O)c3ccc(COc4ccccc4C(F)(F)F)cc3C3=CCNCC3)cccc12` [Compound 310, N-(5-Amino-naphthalen-1-yl)-2-(1,2,3,6-tetrahydro-pyridin-4-yl)-4-(2-trifluoromethyl-phenoxymethyl)-benzamide], the Ki lay in the range of 3 to 30 µM.

Regarding `Nc1cc2ccccc2cc1NC(=O)c1ccc(COc2ccccc2C(F)(F)F)cc1C1=CCNCC1` [Compound 311, N-(3-Amino-naphthalen-2-yl)-2-(1,2,3,6-tetrahydro-pyridin-4-yl)-4-(2-trifluoromethyl-phenoxymethyl)-benzamide], the Ki was 3 to 30 µM.

On to `O=C(OCc1ccc(COc2ccccc2C(F)(F)F)cc1C1=CCNCC1)c1cccc2ccccc12` [Compound 312, Naphthalene-1-carboxylic acid 2-(1,2,3,6-tetrahydro-pyridin-4-yl)-4-(2-trifluoromethyl-phenoxymethyl)-benzyl ester], for which the Ki was less than 3 µM.

Turning to `O=C(OCc1ccc(COc2ccccc2C(F)(F)F)cc1C1=CCNCC1)c1ccc2ccccc2c1` [Compound 313, Naphthalene-2-carboxylic acid 2-(1,2,3,6-tetrahydro-pyridin-4-yl)-4-(2-trifluoromethyl-phenoxymethyl)-benzyl ester], the Ki is less than 3 µM.

As for `O=C(OCc1ccc(COc2ccccc2C(F)(F)F)cc1C1=CCNCC1)c1ccccc1C(F)(F)F` [Compound 314, 2-Trifluoromethyl-benzoic acid 2-(1,2,3,6-tetrahydro-pyridin-4-yl)-4-(2-trifluoromethyl-phenoxymethyl)-benzyl ester], the Ki was in the range of 3 to 30 µM.

Take `O=C(COCc1ccccc1)OCc1ccc(COc2ccccc2C(F)(F)F)cc1C1=CCNCC1` [Compound 315, Benzyloxy-acetic acid 2-(1,2,3,6-tetrahydro-pyridin-4-yl)-4-(2-trifluoromethyl-phenoxymethyl)-benzyl ester]: the Ki is 3 to 30 µM.

As for `O=C(OCc1ccc(COc2ccccc2C(F)(F)F)cc1C1=CCNCC1)c1ccc2c(c1)OCO2` [Compound 316, Benzo[1,3]dioxole-5-carboxylic acid 2-(1,2,3,6-tetrahydro-pyridin-4-yl)-4-(2-trifluoromethyl-phenoxymethyl)-benzyl ester], the Ki fell in the range of 3 to 30 µM.

In the case of `COC(=O)c1ccc(C(=O)OCc2ccc(COc3ccccc3C(F)(F)F)cc2C2=CCNCC2)cc1` [Compound 317, Terephthalic acid 1-methyl ester 4-[2-(1,2,3,6-tetrahydro-pyridin-4-yl)-4-(2-trifluoromethyl-phenoxymethyl)-benzyl] ester], the Ki was 3 to 30 µM.

Turning to `O=C(OCc1ccc(COc2ccccc2C(F)(F)F)cc1C1=CCNCC1)Oc1cccc2ccccc12` [Compound 318, Carbonic acid naphthalen-1-yl ester 2-(1,2,3,6-tetrahydro-pyridin-4-yl)-4-(2-trifluoromethyl-phenoxymethyl)-benzyl ester], the Ki was less than 3 µM.

Consider `O=C(OCc1ccc(COc2ccccc2C(F)(F)F)cc1C1=CCNCC1)Oc1ccc2ccccc2c1` [Compound 319, Carbonic acid naphthalen-2-yl ester 2-(1,2,3,6-tetrahydro-pyridin-4-yl)-4-(2-trifluoromethyl-phenoxymethyl)-benzyl ester], for which the Ki is less than 3 µM.

With `FC(F)(F)c1ccccc1OCc1ccc(COc2cccc3ccccc23)c(C2=CCNCC2)c1` [Compound 320, 4-[2-(Naphthalen-1-yloxymethyl)-5-(2-trifluoromethyl-phenoxymethyl)-phenyl]-1,2,3,6-tetrahydro-pyridine], the Ki lay in the range of 3 to 30 µM.

For the compound `FC(F)(F)c1ccccc1OCc1ccc(COc2ccc3ccccc3c2)c(C2=CCNCC2)c1` [Compound 321, 4-[2-(Naphthalen-2-yloxymethyl)-5-(2-trifluoromethyl-phenoxymethyl)-phenyl]-1,2,3,6-tetrahydro-pyridine], the Ki is less than 3 µM.

Regarding `O=C(Nc1cccc2ccccc12)c1ccc(COc2ccccc2C(F)(F)F)cc1C1=CCNCC1` [Compound 322, N-Naphthalen-1-yl-2-(1,2,3,6-tetrahydro-pyridin-4-yl)-4-(2-trifluoromethyl-phenoxymethyl)-benzamide], the Ki lay within 3 to 30 µM.

Take `FC(F)(F)c1ccc(OCc2ccc(COc3ccccc3C(F)(F)F)cc2C2=CCNCC2)cc1` [Compound 323, 4-[5-(2-Trifluoromethyl-phenoxymethyl)-2-(4-trifluoromethyl-phenoxymethyl)-phenyl]-1,2,3,6-tetrahydro-pyridine]: the Ki is less than 3 µM.

As to `FC(F)(F)c1cccc(OCc2ccc(COc3ccccc3C(F)(F)F)cc2C2=CCNCC2)c1` [Compound 324, 4-[5-(2-Trifluoromethyl-phenoxymethyl)-2-(3-trifluoromethyl-phenoxymethyl)-phenyl]-1,2,3,6-tetrahydro-pyridine], the Ki is less than 3 µM.

As to `FC(F)(F)c1ccccc1OCc1ccc(COc2ccc(-c3ccccc3)cc2)c(C2=CCNCC2)c1` [Compound 325, 4-[2-(Biphenyl-4-yloxymethyl)-5-(2-trifluoromethyl-phenoxymethyl)-phenyl]-1,2,3,6-tetrahydro-pyridine], the Ki was less than 3 µM.

With `FC(F)(F)c1ccccc1OCc1ccc(COc2ccc(-c3ccccc3)cc2-c2ccccc2)c(C2=CCNCC2)c1` [Compound 326, 4-[2-([1,1′;3′,1′′]Terphenyl-4′-yloxymethyl)-5-(2-trifluoromethyl-phenoxymethyl)-phenyl]-1,2,3,6-tetrahydro-pyridine], the Ki lay within 3 to 30 µM.

`FC(F)(F)c1ccccc1OCc1ccc(COc2cccc3ncccc23)c(C2=CCNCC2)c1` [Compound 327, 5-[2-(1,2,3,6-Tetrahydro-pyridin-4-yl)-4-(2-trifluoromethyl-phenoxymethyl)-benzyloxy]-quinoline]: the Ki is less than 3 µM.

Take `COC(=O)c1cccc(OCc2ccc(COc3ccccc3C(F)(F)F)cc2C2=CCNCC2)c1` [Compound 328, 3-[2-(1,2,3,6-Tetrahydro-pyridin-4-yl)-4-(2-trifluoromethyl-phenoxymethyl)-benzyloxy]-benzole acid methyl ester]: the Ki lay within 3 to 30 µM.

With `COC(=O)c1ccc(OCc2ccc(COc3ccccc3C(F)(F)F)cc2C2=CCNCC2)cc1` [Compound 329, 4-[2-(1,2,3,6-Tetrahydro-pyridin-4-yl)-4-(2-trifluoromethyl-phenoxymethyl)-benzyloxy]-benzoic acid methyl ester], the Ki was 3 to 30 µM.

`COC(=O)c1cc(OCc2ccc(COc3ccccc3C(F)(F)F)cc2C2=CCNCC2)cc(C(=O)OC)c1` [Compound 330, 5-[2-(1,2,3,6-Tetrahydro-pyridin-4-yl)-4-(2-trifluoromethyl-phenoxymethyl)-benzyloxy]-isophthalic acid dimethyl ester]: the Ki is less than 3 µM.

Consider `O=C1CCCc2c(OCc3ccc(COc4ccccc4C(F)(F)F)cc3C3=CCNCC3)cccc21` [Compound 331, 5-[2-(1,2,3,6-Tetrahydro-pyridin-4-yl)-4-(2-trifluoromethyl-phenoxymethyl)-benzyloxy]-3,4-dihydro-2H-naphthalen-1-one], for which the Ki was less than 3 µM.

Values taken from patent US20030095958A1, “Inhibitors of bace” (priority 2001, published 2003).
